Measurements reported in patent US20080145313A1, “Compositions and Methods for the Treatment and Prevention of Neoplastic Disorders” (Genesis Research & Development Corporation Limited, priority 2006, published 2008).

Legend:
[1] = system: A549 cells; assay: Growth inhibition of siRNA-transfected A549 cells, SYBR Green I DNA content; assay type: cell-based, human; settings: 10 nM siRNA, DNA content 96 hours after transfection; for Growth Inhibition in A549 cells by 10 nM siRNA: transporter gene targets
Method in brief: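 Growth read-out: cellular DNA quantified with SYBR Green I (485/535 nm) 96 h after transfection, cells frozen, thawed and lysed in PBS/1% Triton X-100, pH 7. Cells (A549, 5×10^3 cells/cm^2) received 10 nM siRNA by RNAiMAX; non-specific siRNA served as control; triplicate wells averaged.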

[2] = system: target transcript mRNA in A549 cells; assay: Level of mRNA of target transcript in A549 cells by quantitative RT-PCR (Tables 12 and 13); assay type: cell-based, human; settings: 24 h post-transfection; for mRNA knockdown of transporter gene target transcript, 0.1 nM: 0.1 nM siRNA; for mRNA knockdown of transporter gene target transcript, 1 nM: 1 nM siRNA
Method in brief: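 Target mRNA was measured by SYBR Green quantitative RT-PCR using random-primed cDNA, normalised to HPRT and Lamin. Samples came from A549 cells 24 h post-transfection with 0.1, 1.0 or 10 nM siRNA.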

Substance	Growth Inhibition in A549 cells by 10 nM siRNA [1]	mRNA knockdown of transporter gene target transcript, 0.1 nM [2]	mRNA knockdown of transporter gene target transcript, 1 nM [2]	Growth Inhibition in A549 cells [1]
SEQ ID NO: 4889: siRNA targeting SLC1A5 (ASCT2) (chain 1 TTGAAGAAGCGGATAAGCAGCTCCC; chain 2 UUGAAGAAGCGGAUAAGCAGCUCCC; Antisense strand given in DNA and RNA notation, chemistry not given here; one strand in two spellings)	− (no growth inhibition)	++ (70-90% mRNA knockdown)	++ (70-90% mRNA knockdown)	–
SEQ ID NO: 4890: siRNA targeting SLC1A5 (ASCT2) (chain 1 TTTACGAAGTCCAAGGACTGCTGGC; chain 2 UUUACGAAGUCCAAGGACUGCUGGC; Antisense strand given in DNA and RNA notation, chemistry not given here; one strand in two spellings)	− (no growth inhibition)	++ (70-90% mRNA knockdown)	++ (70-90% mRNA knockdown)	–
SEQ ID NO: 4891: siRNA targeting SLC1A5 (ASCT2) (chain 1 TCTACATTGAGGACGGTACAGGACC; chain 2 UCUACAUUGAGGACGGUACAGGACC; Antisense strand given in DNA and RNA notation, chemistry not given here; one strand in two spellings)	− (no growth inhibition)	++ (70-90% mRNA knockdown)	++ (70-90% mRNA knockdown)	–
SEQ ID NO: 4892: siRNA targeting SLC2A1 (GLUT1) (chain 1 TGTCTTATCACTTTGGCTGGCTCCC; chain 2 UGUCUUAUCACUUUGGCUGGCUCCC; Antisense strand given in DNA and RNA notation, chemistry not given here; one strand in two spellings)	+ (inhibits by at least 50%)	− (<50% mRNA knockdown)	− (<50% mRNA knockdown)	–
SEQ ID NO: 4893: siRNA targeting SLC2A1 (GLUT1) (chain 1 TTCATCATCAGCATTGAATTCCGCC; chain 2 UUCAUCAUCAGCAUUGAAUUCCGCC; Antisense strand given in DNA and RNA notation, chemistry not given here; one strand in two spellings)	++ (inhibits by at least 75%)	− (<50% mRNA knockdown)	− (<50% mRNA knockdown)	–
SEQ ID NO: 4894: siRNA targeting SLC2A1 (GLUT1) (chain 1 TGACACTTCACCCACATACATGGGC; chain 2 UGACACUUCACCCACAUACAUGGGC; Antisense strand given in DNA and RNA notation, chemistry not given here; one strand in two spellings)	− (no growth inhibition)	− (<50% mRNA knockdown)	++ (70-90% mRNA knockdown)	–
SEQ ID NO: 4986: siRNA targeting DCK (chain 1 ACGATCTGTGTATAGTGACAGGTAT; chain 2 ACGAUCUGUGUAUAGUGACAGGUAU; Both strands are one antisense strand in DNA/RNA notation, chemistry not given here, further chemistry not given here; one strand in two spellings)	–	–	–	− (no growth inhibition with any siRNA)
SEQ ID NO: 4987: siRNA targeting DCK (chain 1 CAAGACTGGCATGACTGGATGAATA; chain 2 CAAGACUGGCAUGACUGGAUGAAUA; Both strands are one antisense strand in DNA/RNA notation, chemistry not given here, further chemistry not given here; one strand in two spellings)	–	–	–	− (no growth inhibition with any siRNA)
SEQ ID NO: 4988: siRNA targeting DCK (chain 1 GCAAGGCATTCCTCTTGAATATTTA; chain 2 GCAAGGCAUUCCUCUUGAAUAUUUA; Both strands are one antisense strand in DNA/RNA notation, chemistry not given here, further chemistry not given here; one strand in two spellings)	–	–	–	− (no growth inhibition with any siRNA)
SEQ ID NO: 4989: siRNA targeting TK1 (chain 1 GCGTGGCTGTCATAGGCATCGACGA; chain 2 GCGUGGCUGUCAUAGGCAUCGACGA; chemistry not given here; one strand in two spellings)	–	–	–	− (no growth inhibition with any siRNA)
SEQ ID NO: 4990: siRNA targeting TK1 (chain 1 GACATCATGGAGTTCTGCGAGGCCA; chain 2 GACAUCAUGGAGUUCUGCGAGGCCA; chemistry not given here; one strand in two spellings)	–	–	–	− (no growth inhibition with any siRNA)
SEQ ID NO: 4991: siRNA targeting TK1 (chain 1 GCACTGGATGGGACCTTCCAGAGGA; chain 2 GCACUGGAUGGGACCUUCCAGAGGA; chemistry not given here; one strand in two spellings)	–	–	–	− (no growth inhibition with any siRNA)
SEQ ID NO: 4992: siRNA targeting TK2 (chain 1 GGGATCGAATATTAACTCCAGAGAA; chain 2 GGGAUCGAAUAUUAACUCCAGAGAA; chemistry not given here; one strand in two spellings)	–	–	–	− (no growth inhibition with any siRNA)
SEQ ID NO: 4993: siRNA targeting TK2 (chain 1 GGAAGACGACATGCCTGGAATTCTT; chain 2 GGAAGACGACAUGCCUGGAAUUCUU; chemistry not given here; one strand in two spellings)	–	–	–	− (no growth inhibition with any siRNA)
SEQ ID NO: 4994: siRNA targeting TK2 (chain 1 CCTGAGACTTGTTACCAGAGGTTAA; chain 2 CCUGAGACUUGUUACCAGAGGUUAA; chemistry not given here; one strand in two spellings)	–	–	–	− (no growth inhibition with any siRNA)
SEQ ID NO: 4995: siRNA targeting DGUOK (chain 1 CCTCATGAGAGAGGTAAACACCTTT; chain 2 CCUCAUGAGAGAGGUAAACACCUUU; chemistry not given here; one strand in two spellings)	–	–	–	− (no growth inhibition with any siRNA)
SEQ ID NO: 4996: siRNA targeting DGUOK (chain 1 CCTGCACTGCCCAAAGTCTTGGAAA; chain 2 CCUGCACUGCCCAAAGUCUUGGAAA; chemistry not given here; one strand in two spellings)	–	–	–	− (no growth inhibition with any siRNA)
SEQ ID NO: 4997: siRNA targeting DGUOK (chain 1 GCCAGGAAGCCAGTACAGATCTTTG; chain 2 GCCAGGAAGCCAGUACAGAUCUUUG; chemistry not given here; one strand in two spellings)	–	–	–	+ (inhibits by at least 50%)
SEQ ID NO: 4998: siRNA targeting UMPS (chain 1 GAGTTGTGAAAGGCCTGCAAGAAGT; chain 2 GAGUUGUGAAAGGCCUGCAAGAAGU; chemistry not given here; one strand in two spellings)	–	–	–	− (no growth inhibition with any siRNA)
SEQ ID NO: 4999: siRNA targeting UMPS (chain 1 TGGAAACTGTTGAGGTTCTTCAGAA; chain 2 UGGAAACUGUUGAGGUUCUUCAGAA; chemistry not given here; one strand in two spellings)	–	–	–	+ (inhibits by at least 50%)
SEQ ID NO: 5000: siRNA targeting UMPS (chain 1 GCTGTTGCAGCTAGCAGATGCTTTA; chain 2 GCUGUUGCAGCUAGCAGAUGCUUUA; chemistry not given here; one strand in two spellings)	–	–	–	− (no growth inhibition with any siRNA)
SEQ ID NO: 5001: siRNA targeting DPYD (chain 1 GCTAGCATTATGTGCAGTTACAATA; chain 2 GCUAGCAUUAUGUGCAGUUACAAUA; chemistry not given here; one strand in two spellings)	–	–	–	− (no growth inhibition with any siRNA)
SEQ ID NO: 5002: siRNA targeting DPYD (chain 1 GCCACTGAAGAGGGACCCATTAATA; chain 2 GCCACUGAAGAGGGACCCAUUAAUA; chemistry not given here; one strand in two spellings)	–	–	–	− (no growth inhibition with any siRNA)
SEQ ID NO: 5003: siRNA targeting DPYD (chain 1 GGCTACAAAGCTGCTTTCATTGGAA; chain 2 GGCUACAAAGCUGCUUUCAUUGGAA; chemistry not given here; one strand in two spellings)	–	–	–	− (no growth inhibition with any siRNA)
